According to PubChem BioAssay (NCI):
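Five concentrations, 48 hours, 96-well plates. Definition used: TGI = concentration required for complete inhibition of growth.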

How the values were obtained:
Assay in all cases: NCI tumour cell line growth inhibition, 48 h
786-0 renal = test system: 786-0 renal
A498 renal = test system: A498 renal
A549 NSCLC = test system: A549 NSCLC
ACHN renal = test system: ACHN renal
BT-549 breast = test system: BT-549 breast
CAKI-1 renal = test system: CAKI-1 renal
CCRF-CEM leukemia = test system: CCRF-CEM leukemia
COLO 205 colon = test system: COLO 205 colon
DU-145 prostate = test system: DU-145 prostate
HCC-2998 colon = test system: HCC-2998 colon
HCT-116 colon = test system: HCT-116 colon
HCT-15 colon = test system: HCT-15 colon
HL-60(TB) leukemia = test system: HL-60(TB) leukemia
HOP-92 NSCLC = test system: HOP-92 NSCLC
HS 578T breast = test system: HS 578T breast
HT29 colon = test system: HT29 colon
IGROV1 ovarian = test system: IGROV1 ovarian
K-562 leukemia = test system: K-562 leukemia
KM12 colon = test system: KM12 colon
LOX IMVI melanoma = test system: LOX IMVI melanoma
M14 melanoma = test system: M14 melanoma
MALME-3M melanoma = test system: MALME-3M melanoma
MDA-MB-231 breast = test system: MDA-MB-231 breast
MDA-MB-435 = test system: MDA-MB-435
MDA-N = test system: MDA-N
MOLT-4 leukemia = test system: MOLT-4 leukemia
NCI-H226 lung = test system: NCI-H226 lung
NCI-H23 lung = test system: NCI-H23 lung
NCI-H460 lung = test system: NCI-H460 lung
NCI/ADR-RES ovarian = test system: NCI/ADR-RES ovarian
OVCAR-3 ovarian = test system: OVCAR-3 ovarian
OVCAR-4 ovarian = test system: OVCAR-4 ovarian
OVCAR-5 ovarian = test system: OVCAR-5 ovarian
OVCAR-8 ovarian = test system: OVCAR-8 ovarian
PC-3 prostate = test system: PC-3 prostate
RPMI-8226 leukemia = test system: RPMI-8226 leukemia
RXF 393 renal = test system: RXF 393 renal
SF-268 CNS = test system: SF-268 CNS
SF-539 CNS = test system: SF-539 CNS
SK-MEL-2 melanoma = test system: SK-MEL-2 melanoma
SK-MEL-28 melanoma = test system: SK-MEL-28 melanoma
SK-MEL-5 melanoma = test system: SK-MEL-5 melanoma
SK-OV-3 ovarian = test system: SK-OV-3 ovarian
SN12C renal = test system: SN12C renal
SNB-19 CNS = test system: SNB-19 CNS
SNB-75 CNS = test system: SNB-75 CNS
SR leukemia = test system: SR leukemia
SW-620 colon = test system: SW-620 colon
T-47D breast = test system: T-47D breast
U251 CNS = test system: U251 CNS
UACC-257 melanoma = test system: UACC-257 melanoma
UACC-62 melanoma = test system: UACC-62 melanoma
EKVX NSCLC = test system: EKVX NSCLC
HOP-62 NSCLC = test system: HOP-62 NSCLC
MCF7 breast = test system: MCF7 breast
NCI-H522 lung = test system: NCI-H522 lung
SF-295 CNS = test system: SF-295 CNS
TK-10 renal = test system: TK-10 renal
UO-31 renal = test system: UO-31 renal

`N=c1oc2ccc(Cl)cc2cc1C(N)=O` gave a TGI (786-0 renal) of 73 µM, a TGI (A498 renal) greater than 100 µM and a TGI (A549 NSCLC) greater than 100 µM. The TGI (ACHN renal) was greater than 100 µM, the TGI (BT-549 breast) was greater than 100 µM and the TGI (CAKI-1 renal) was greater than 100 µM. For the same compound, the TGI (CCRF-CEM leukemia) was greater than 100 µM, the TGI (COLO 205 colon) was greater than 100 µM and the TGI (DU-145 prostate) was greater than 100 µM. For the same compound, the TGI (HCC-2998 colon) was 47.4 µM, the TGI (HCT-116 colon) was 61.7 µM and the TGI (HCT-15 colon) was 69.2 µM. For the same compound, the TGI (HL-60(TB) leukemia) was greater than 100 µM, the TGI (HOP-92 NSCLC) was greater than 100 µM and the TGI (HS 578T breast) was 63.9 µM. For the same compound, the TGI (HT29 colon) was greater than 100 µM, the TGI (IGROV1 ovarian) was greater than 100 µM and the TGI (K-562 leukemia) was greater than 100 µM. It also gave a TGI (KM12 colon) of 88.4 µM, a TGI (LOX IMVI melanoma) greater than 100 µM and a TGI (M14 melanoma) greater than 100 µM. The TGI (MALME-3M melanoma) was 37.1 µM, the TGI (MDA-MB-231 breast) was 69 µM and the TGI (MDA-MB-435) was 82 µM. It also gave a TGI (MDA-N) of 69.1 µM, a TGI (MOLT-4 leukemia) greater than 100 µM and a TGI (NCI-H226 lung) of 78.1 µM. It also gave a TGI (NCI-H23 lung) of 75.1 µM, a TGI (NCI-H460 lung) greater than 100 µM and a TGI (NCI/ADR-RES ovarian) greater than 100 µM. For the same compound, the TGI (OVCAR-3 ovarian) was 64.9 µM, the TGI (OVCAR-4 ovarian) was 85.9 µM and the TGI (OVCAR-5 ovarian) was greater than 100 µM. The TGI (OVCAR-8 ovarian) was greater than 100 µM, the TGI (PC-3 prostate) was 72.8 µM and the TGI (RPMI-8226 leukemia) was greater than 100 µM. The TGI (RXF 393 renal) was greater than 100 µM, the TGI (SF-268 CNS) was greater than 100 µM and the TGI (SF-539 CNS) was greater than 100 µM. The TGI (SK-MEL-2 melanoma) was 31.8 µM, the TGI (SK-MEL-28 melanoma) was greater than 100 µM and the TGI (SK-MEL-5 melanoma) was 47 µM. It also gave a TGI (SK-OV-3 ovarian) greater than 100 µM, a TGI (SN12C renal) of 45.1 µM and a TGI (SNB-19 CNS) greater than 100 µM. For the same compound, the TGI (SNB-75 CNS) was greater than 100 µM, the TGI (SR leukemia) was greater than 100 µM and the TGI (SW-620 colon) was greater than 100 µM. For the same compound, the TGI (T-47D breast) was 94.6 µM, the TGI (U251 CNS) was greater than 100 µM and the TGI (UACC-257 melanoma) was greater than 100 µM. The TGI (UACC-62 melanoma) was 41.3 µM.
Work on `O=c1c2cc(S(=O)(=O)O)ccc2nc(COc2ccc(Oc3ccc(Cl)cc3Cl)cc2)n1C(=S)Nc1ccc(Cl)cc1` yielded a TGI (786-0 renal) of 40.4 µM, a TGI (A498 renal) of 52.5 µM and a TGI (A549 NSCLC) of 53.1 µM. For the same compound, the TGI (ACHN renal) was 64.7 µM, the TGI (BT-549 breast) was 45.2 µM and the TGI (CAKI-1 renal) was greater than 100 µM. The TGI (CCRF-CEM leukemia) was greater than 100 µM, the TGI (COLO 205 colon) was 34.1 µM and the TGI (DU-145 prostate) was 87 µM. The TGI (EKVX NSCLC) was 56.6 µM, the TGI (HCT-116 colon) was 53.3 µM and the TGI (HCT-15 colon) was 50.5 µM. The TGI (HL-60(TB) leukemia) was 4.07 µM, the TGI (HOP-62 NSCLC) was 44.4 µM and the TGI (HOP-92 NSCLC) was 43.3 µM. For the same compound, the TGI (HS 578T breast) was 44.8 µM, the TGI (HT29 colon) was 36.4 µM and the TGI (IGROV1 ovarian) was greater than 100 µM. It also gave a TGI (K-562 leukemia) of 30.8 µM, a TGI (KM12 colon) of 71.4 µM and a TGI (LOX IMVI melanoma) of 32 µM. For the same compound, the TGI (M14 melanoma) was 40.9 µM, the TGI (MALME-3M melanoma) was 49 µM and the TGI (MCF7 breast) was 38.3 µM. The TGI (MDA-MB-435) was 39.3 µM, the TGI (MDA-N) was 51 µM and the TGI (NCI-H226 lung) was 42.4 µM. For the same compound, the TGI (NCI-H23 lung) was 36.2 µM, the TGI (NCI-H460 lung) was 35.8 µM and the TGI (NCI-H522 lung) was 39.8 µM. The TGI (NCI/ADR-RES ovarian) was 37.9 µM, the TGI (OVCAR-3 ovarian) was 51.7 µM and the TGI (OVCAR-4 ovarian) was 59.3 µM. It also gave a TGI (OVCAR-5 ovarian) of 40.7 µM, a TGI (OVCAR-8 ovarian) of 55.3 µM and a TGI (PC-3 prostate) greater than 100 µM. It also gave a TGI (RPMI-8226 leukemia) of 81.5 µM, a TGI (RXF 393 renal) of 31 µM and a TGI (SF-268 CNS) of 31.3 µM. The TGI (SF-295 CNS) was 39.6 µM, the TGI (SF-539 CNS) was 31.9 µM and the TGI (SK-MEL-2 melanoma) was 37.4 µM. For the same compound, the TGI (SK-MEL-5 melanoma) was 33.1 µM, the TGI (SK-OV-3 ovarian) was 49 µM and the TGI (SN12C renal) was 34.7 µM. It also gave a TGI (SNB-19 CNS) greater than 100 µM, a TGI (SNB-75 CNS) of 41.5 µM and a TGI (SR leukemia) of 22.9 µM. The TGI (SW-620 colon) was 49.4 µM, the TGI (T-47D breast) was greater than 100 µM and the TGI (TK-10 renal) was 40.4 µM. The TGI (U251 CNS) was 35.5 µM, the TGI (UACC-257 melanoma) was 60.5 µM and the TGI (UACC-62 melanoma) was 31 µM. It also gave a TGI (UO-31 renal) of 29.7 µM.
